This note sets out measurements from US11304957B2, “Substituted quinazolines for inhibiting kinase activity” (NeuPharma, Inc., priority 2013, dated 2022).

Where only a bound is given, the exact number is not on record here.

What all share (assay type): biochemical
For one test, the target named is JAK2 (Homo sapiens (Human), UniProt O60674). Nature of the test: Z'-LYTE kinase inhibition assay, JAK2. The note with it: read-out: % inhibition JAK2; heading: % inhibition JAK2; compound at 0.041 μM. The protocol: (§1) Inhibitory activities of compounds against BTK, EGFR and EGFR mutants (EGFR L858R, EGFR T790M, EGFR L858R/T790M), FGFR1, FGFR2, JAK2, JAK3 and KDR were measured by Invitrogen using Z′-LYTE® Method as briefly described in the following.
Chain of JAK2 (O60674 whole entry): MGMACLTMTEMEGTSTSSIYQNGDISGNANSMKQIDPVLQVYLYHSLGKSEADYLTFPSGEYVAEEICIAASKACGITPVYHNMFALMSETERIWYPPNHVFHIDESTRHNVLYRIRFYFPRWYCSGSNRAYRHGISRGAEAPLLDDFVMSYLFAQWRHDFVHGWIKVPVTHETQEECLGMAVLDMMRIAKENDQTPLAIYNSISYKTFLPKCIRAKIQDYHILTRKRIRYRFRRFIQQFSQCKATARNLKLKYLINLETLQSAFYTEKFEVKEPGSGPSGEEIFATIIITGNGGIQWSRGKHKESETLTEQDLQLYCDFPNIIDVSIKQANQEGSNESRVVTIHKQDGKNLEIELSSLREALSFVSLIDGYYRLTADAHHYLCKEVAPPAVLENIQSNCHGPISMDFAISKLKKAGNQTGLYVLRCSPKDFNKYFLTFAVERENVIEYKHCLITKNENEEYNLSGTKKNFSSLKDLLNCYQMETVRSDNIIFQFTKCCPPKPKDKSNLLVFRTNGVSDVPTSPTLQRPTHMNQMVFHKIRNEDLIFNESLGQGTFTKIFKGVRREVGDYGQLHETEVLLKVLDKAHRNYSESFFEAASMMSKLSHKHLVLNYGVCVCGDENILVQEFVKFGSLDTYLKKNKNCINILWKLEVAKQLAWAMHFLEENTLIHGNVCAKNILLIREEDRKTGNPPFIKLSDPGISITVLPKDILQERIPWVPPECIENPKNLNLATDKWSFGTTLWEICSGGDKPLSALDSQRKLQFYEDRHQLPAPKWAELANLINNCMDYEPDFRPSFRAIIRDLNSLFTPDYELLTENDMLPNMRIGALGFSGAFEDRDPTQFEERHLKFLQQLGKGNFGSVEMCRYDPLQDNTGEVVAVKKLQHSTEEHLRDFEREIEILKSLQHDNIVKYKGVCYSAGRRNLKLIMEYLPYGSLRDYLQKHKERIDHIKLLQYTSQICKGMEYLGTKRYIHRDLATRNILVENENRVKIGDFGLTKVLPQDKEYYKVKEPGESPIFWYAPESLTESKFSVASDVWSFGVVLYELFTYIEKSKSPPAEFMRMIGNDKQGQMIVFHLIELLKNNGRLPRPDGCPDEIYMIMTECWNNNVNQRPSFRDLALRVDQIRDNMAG
(§2) Test Compounds are screened in 1% DMSO (final) in the well. For 10 point titrations, 3-fold serial dilutions are conducted from the starting concentration. All ATP Solutions are diluted to a 4× working concentration in Kinase Buffer (50 mM HEPES pH 7.5, 0.01% BRIJ-35, 10 mM MgCl2, 1 mM EGTA). Peptide/Kinase Mixtures are diluted to a 2× working concentration in the appropriate Kinase Buffers as described below.
(v) Peptide/Kinase Mixtures for Measurement of JAK2:
The 2×JAK2/Tyr 06 mixture is prepared in 50 mM HEPES pH 7.5, 0.01% BRIJ-35, 10 mM MgCl2, 1 mM EGTA. The final 10 μL Kinase Reaction consists of 0.06-0.81 ng JAK2 and 2 μM Tyr 06 in 50 mM HEPES pH 7.5, 0.01% BRIJ-35, 10 mM MgCl2, 1 mM EGTA. After the 1 hour Kinase Reaction incubation, 5 μL of a 1:64 dilution of Development Reagent A is added.
(§3) Reaction starts by 30-second shaking of mixture consisting of 2.5 μL 4× test compound, 5 μL 2× kinase reaction mixture and 2.5 μL 4×ATP Solution on Bar-coded Corning, low volume NBS, black 384-well plate (Corning Cat. #3676). Then the mixture is incubated for 60-minute at room temperature for the kinase reaction, followed by addition of 5 μL of a 1:1024 dilution of development reagent A and 30-second plate shake. The mixture is then incubated for another 60-minute at room temperature for development reaction. Finally fluorescence is read by plate reader.

A further test has as its target BTK (Homo sapiens (Human), UniProt Q06187). The experiment in a line: Z'-LYTE kinase inhibition assay, BTK. The note with it: read-out: % inhibition BTK; heading: % inhibition BTK; compound at 0.041 μM. The protocol:
as §1, §2
(v) Peptide/Kinase Mixtures for Measurement of BTK:
The 2×BTK/Tyr 01 mixture is prepared in 50 mM HEPES pH 7.5, 0.01% BRIJ-35, 10 mM MgCl2, 1 mM EGTA.
The mixture is then incubated for another 60-minute at room temperature for development reaction. Finally fluorescence is read by plate reader.
(§4) To determine IC50 of a compound against EGFR, EGFR mutant and other kinases, a series of concentrations of the compound were tested for the inhibition. […] The scale utilized in Table 4 is as follows: +++ less than 100 nM, ++ 100-500 nM and + greater than 500 nM.

For the next test, the target named is EGFR (ErbB1) T790M L858R (Homo sapiens (Human), UniProt P00533, L858R/T790M). The experiment in a line: Z'-LYTE kinase inhibition assay, EGFR L858R/T790M. The conditions noted are these: for inhibition at 0.0137 µM: read-out: % inhibition EGFR L858R/T790M (Compound at 0.0137 μM); for inhibition at 1 µM: read-out: % inhibition EGFR L858R/T790M (Compound at 1 μM). The protocol:
Inhibitory activities of compounds against BTK, EGFR and EGFR mutants (EGFR L858R, EGFR T790M, EGFR L858R/T790M), FGFR1, FGFR2, JAK2, JAK3 and KDR were measured by Invitrogen using Z'-LYTE® Method as briefly described in the following. Test Compounds are screened in 1% DMSO (final) in the well. For 10 point titrations, 3-fold serial dilutions are conducted from the starting concentration. All ATP Solutions are diluted to a 4× working concentration in Kinase Buffer (50 mM HEPES pH 7.5, 0.01% BRIJ-35, 10 mM MgCl2, 1 mM EGTA). Peptide/Kinase Mixtures are diluted to a 2× working concentration in the appropriate Kinase Buffers as described below. (iv) Peptide/Kinase Mixtures for Measurement of EGFR (ErbB1) T790M L858R: The 2×EGFR (ErbB1) […] mixture is prepared in 50 mM HEPES pH 6.5, 0.01% BRIJ-35, 10 mM MgCl2, 1 mM EGTA, 0.02% NaN3. […] After the 1 hour Kinase Reaction incubation, 5 μL of a 1:64 dilution of Development Reagent B is added. Reaction starts by 30-second shaking of mixture consisting of 2.5 μL 4× test compound, 5 μL 2× kinase reaction mixture and 2.5 μL 4×ATP Solution on Bar-coded Corning, low volume NBS, black 384-well plate (Corning Cat. #3676). Then the mixture is incubated for 60-minute at room temperature for the kinase reaction, followed by addition of 5 μL of a 1:1024 dilution of development reagent A and 30-second plate shake. The mixture is then incubated for another 60-minute at room temperature for development reaction. Finally fluorescence is read by plate reader. To determine IC50 of a compound against EGFR, EGFR mutant and other kinases, a series of concentrations of the compound were tested for the inhibition.

The target in a further test is FGFR1 (Homo sapiens (Human), UniProt P11362). The experiment in a line: Z'-LYTE kinase inhibition assay, FGFR1. The note with it: read-out: % inhibition FGFR1; heading: % inhibition FGFR1; compound at 0.041 μM. As to the method:
as §1, §2
(v) Peptide/Kinase Mixtures for Measurement of FGFR1:
The 2×FGFR1/Tyr 04 mixture is prepared in 50 mM HEPES pH 7.5, 0.01% BRIJ-35, 10 mM MgCl2, 4 mM MnCl2, 1 mM EGTA, 2 mM DTT. The final 10 μL Kinase Reaction consists of 0.41-3.5 ng FGFR1 and 2 μM Tyr 04 in 50 mM HEPES pH 7.5, 0.01% BRIJ-35, 10 mM MgCl2, 2 mM MnCl2, 1 mM EGTA, 1 mM DTT. After the 1 hour Kinase Reaction incubation, 5 μL of a 1:64 dilution of Development Reagent B is added.
as §3, §4

Chain of EGFR (ErbB1) T790M L858R (P00533 25-1210 T790M/L858R): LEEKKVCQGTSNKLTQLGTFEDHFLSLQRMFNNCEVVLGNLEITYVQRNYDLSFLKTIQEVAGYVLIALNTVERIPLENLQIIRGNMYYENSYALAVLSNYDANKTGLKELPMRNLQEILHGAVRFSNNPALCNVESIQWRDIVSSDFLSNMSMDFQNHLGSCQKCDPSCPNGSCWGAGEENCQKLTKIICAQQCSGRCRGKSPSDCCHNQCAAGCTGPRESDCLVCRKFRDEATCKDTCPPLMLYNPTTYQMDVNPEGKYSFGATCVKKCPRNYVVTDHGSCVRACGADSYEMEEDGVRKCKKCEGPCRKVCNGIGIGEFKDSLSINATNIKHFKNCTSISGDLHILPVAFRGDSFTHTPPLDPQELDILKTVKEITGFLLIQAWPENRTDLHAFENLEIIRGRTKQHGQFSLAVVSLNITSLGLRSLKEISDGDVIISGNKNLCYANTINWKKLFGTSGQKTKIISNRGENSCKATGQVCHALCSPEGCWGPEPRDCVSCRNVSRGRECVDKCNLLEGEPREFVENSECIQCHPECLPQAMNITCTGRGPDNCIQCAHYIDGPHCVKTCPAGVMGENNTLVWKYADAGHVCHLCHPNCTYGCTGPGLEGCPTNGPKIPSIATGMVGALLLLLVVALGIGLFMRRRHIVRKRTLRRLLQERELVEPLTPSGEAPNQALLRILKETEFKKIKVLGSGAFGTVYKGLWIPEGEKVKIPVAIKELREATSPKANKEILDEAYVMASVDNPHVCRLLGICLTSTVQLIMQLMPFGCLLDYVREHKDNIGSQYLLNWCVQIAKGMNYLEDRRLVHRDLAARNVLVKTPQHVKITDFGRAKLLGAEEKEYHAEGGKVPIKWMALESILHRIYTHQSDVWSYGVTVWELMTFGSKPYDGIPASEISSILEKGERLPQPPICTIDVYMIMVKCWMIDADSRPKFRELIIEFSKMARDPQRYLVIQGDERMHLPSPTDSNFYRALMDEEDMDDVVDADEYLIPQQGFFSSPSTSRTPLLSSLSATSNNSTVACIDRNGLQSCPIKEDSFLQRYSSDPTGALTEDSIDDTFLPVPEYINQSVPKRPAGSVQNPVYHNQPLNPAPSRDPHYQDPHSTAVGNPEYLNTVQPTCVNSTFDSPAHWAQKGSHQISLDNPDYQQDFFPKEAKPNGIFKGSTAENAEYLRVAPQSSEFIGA
Chain of BTK (Q06187 whole entry): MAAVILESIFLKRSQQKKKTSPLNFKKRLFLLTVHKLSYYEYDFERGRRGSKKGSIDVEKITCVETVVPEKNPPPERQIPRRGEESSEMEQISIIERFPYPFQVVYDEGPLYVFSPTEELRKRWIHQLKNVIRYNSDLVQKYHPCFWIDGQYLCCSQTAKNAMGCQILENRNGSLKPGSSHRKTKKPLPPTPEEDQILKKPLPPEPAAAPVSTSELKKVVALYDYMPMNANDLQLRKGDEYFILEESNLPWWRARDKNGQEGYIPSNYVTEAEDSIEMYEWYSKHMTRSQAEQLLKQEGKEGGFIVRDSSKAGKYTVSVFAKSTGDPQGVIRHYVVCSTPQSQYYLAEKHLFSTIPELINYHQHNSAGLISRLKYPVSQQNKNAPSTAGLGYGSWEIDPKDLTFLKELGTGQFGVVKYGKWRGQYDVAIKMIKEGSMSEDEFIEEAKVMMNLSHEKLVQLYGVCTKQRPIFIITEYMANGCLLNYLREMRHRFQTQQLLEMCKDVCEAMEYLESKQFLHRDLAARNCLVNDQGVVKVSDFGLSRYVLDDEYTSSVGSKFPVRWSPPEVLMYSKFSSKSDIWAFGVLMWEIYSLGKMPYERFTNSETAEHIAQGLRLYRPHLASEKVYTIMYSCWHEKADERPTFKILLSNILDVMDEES
Chain of FGFR1 (P11362 22-822): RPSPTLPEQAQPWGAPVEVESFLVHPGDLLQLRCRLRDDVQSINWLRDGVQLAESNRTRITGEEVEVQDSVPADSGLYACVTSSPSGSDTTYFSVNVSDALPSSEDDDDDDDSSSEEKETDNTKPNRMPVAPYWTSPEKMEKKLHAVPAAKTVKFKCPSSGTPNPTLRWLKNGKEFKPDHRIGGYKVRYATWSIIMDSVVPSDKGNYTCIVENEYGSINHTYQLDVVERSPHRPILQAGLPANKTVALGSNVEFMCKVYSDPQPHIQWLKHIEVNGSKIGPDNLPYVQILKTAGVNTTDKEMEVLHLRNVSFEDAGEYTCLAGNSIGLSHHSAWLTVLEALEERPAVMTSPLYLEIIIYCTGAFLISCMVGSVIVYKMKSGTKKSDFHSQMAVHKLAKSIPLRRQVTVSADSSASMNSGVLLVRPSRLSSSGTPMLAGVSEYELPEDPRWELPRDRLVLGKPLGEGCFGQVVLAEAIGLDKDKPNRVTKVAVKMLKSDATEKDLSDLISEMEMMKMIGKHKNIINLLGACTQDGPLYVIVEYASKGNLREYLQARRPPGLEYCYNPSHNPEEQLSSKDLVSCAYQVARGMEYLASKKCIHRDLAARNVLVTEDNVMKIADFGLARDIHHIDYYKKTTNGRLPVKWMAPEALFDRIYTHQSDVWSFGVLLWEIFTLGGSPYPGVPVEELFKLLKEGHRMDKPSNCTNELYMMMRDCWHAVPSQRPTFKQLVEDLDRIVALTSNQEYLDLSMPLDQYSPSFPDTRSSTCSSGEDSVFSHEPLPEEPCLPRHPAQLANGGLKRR

Regarding `c1ccc(-c2cccc3cnc(Nc4ccc(N5CCOCC5)cc4)nc23)cc1` [Example C004, N-(4-morpholinophenyl)-8-phenylquinazolin-2-amine], the results for the inhibition at 0.041 µM on JAK2 and at BTK were greater than 50% and less than 50%, respectively.

Turning to `C=CC(=O)Nc1cccc(-c2nccc3c(N)nc(Nc4ccc(N5CCOCC5)cc4)nc23)c1` [Example C005, N-(3-(4-amino-2-((4-morpholinophenyl)amino)pyrido[3,4-d]pyrimidin-8-yl)phenyl)acrylamide], the inhibition at 0.041 µM on JAK2 is less than 50%; at BTK, greater than 50%. In the same order, the values of `C=CC(=O)Nc1cccc(-c2nccc3cnc(Nc4ccc(N5CCOCC5)cc4)nc23)c1` [Example C012, N-(3-(2-((4-morpholinophenyl)amino)pyrido[3,4-d]pyrimidin-8-yl)phenyl)acrylamide] are less than 50% and greater than 50%. Take `C=CC(=O)Nc1cccc(-c2cccc3cnc(Nc4ccc(N5CCN(C)CC5)cc4)nc23)c1` [Example C021, N-(3-(2-((4-(4-methylpiperazin-1-yl)phenyl)amino)quinazolin-8-yl)phenyl)acrylamide]: at JAK2, the inhibition at 0.041 µM was greater than 50%. The inhibition at 0.0137 µM at EGFR (ErbB1) T790M L858R is greater than 50%. `CC(=O)Nc1cccc(-c2cccc3cnc(Nc4ccc(N5CCN(C)CC5)cc4)nc23)c1` [Example C022, N-(3-(2-((4-(4-methylpiperazin-1-yl)phenyl)amino)quinazolin-8-yl)phenyl)acetamide]: the inhibition at 0.041 µM on JAK2 and on BTK was greater than 50% each time.

Take `Fc1cccc(-c2cccc3cnc(Nc4ccc(N5CCNCC5)cc4)nc23)c1` [Example C027, 8-(3-fluorophenyl)-N-(4-(piperazin-1-yl)phenyl)quinazolin-2-amine]: the inhibition at 0.041 µM at FGFR1 is greater than 50%.

Turning to `C=CC(=O)Nc1cccc(-c2cccc3cnc(Nc4ccc(N5CCN(C(C)=O)CC5)cc4)nc23)c1` [Example C032, N-(3-(2-((4-(4-acetylpiperazin-1-yl)phenyl)amino)quinazolin-8-yl)phenyl)acrylamide], the inhibition at 0.041 µM on JAK2 is greater than 50%. For the same molecule, the inhibition at 0.041 µM on BTK was greater than 50%. For the same molecule, on EGFR (ErbB1) T790M L858R, the inhibition at 0.0137 µM is less than 50% and the inhibition at 1 µM was greater than 50%. With `C=CC(=O)Nc1cccc(-c2c(C)ccc3cnc(Nc4ccc(N5CCOCC5)cc4)nc23)c1` [Example C033, N-(3-(7-methyl-2-((4-morpholinophenyl)amino)quinazolin-8-yl)phenyl)acrylamide], the inhibition at 0.041 µM was less than 50% at JAK2 and greater than 50% on BTK.

Take `C=CC(=O)Nc1cccc(-c2c(C)ccc3cnc(Nc4ccc(N5CCN(C)CC5)cc4)nc23)c1` [Example C034, N-(3-(7-methyl-2-((4-(4-methylpiperazin-1-yl)phenyl)amino)quinazolin-8-yl)phenyl)acrylamide]: the inhibition at 1 µM on EGFR (ErbB1) T790M L858R was greater than 50%. For the molecule `C=CC(=O)Nc1cccc(-c2cccc3cnc(Nc4ccc(N5CCN(C(C)=O)CC5)nc4)nc23)c1` [Example C036, N-(3-(2-((6-(4-acetylpiperazin-1-yl)pyridin-3-yl)amino)quinazolin-8-yl)phenyl)acrylamide], the inhibition at 0.041 µM on FGFR1 was less than 50%. Regarding `C=CC(=O)Nc1cncc(-c2cccc3cnc(Nc4ccc(N5CCN(C)CC5)cc4)nc23)c1` [Example C040, N-(5-(2-((4-(4-methylpiperazin-1-yl)phenyl)amino)quinazolin-8-yl)pyridin-3-yl)acrylamide], the inhibition at 0.041 µM was less than 50% at JAK2 and greater than 50% on BTK. For the same molecule, the inhibition at 0.0137 µM at EGFR (ErbB1) T790M L858R is greater than 50%.

As for `C=CC(=O)Nc1cccc(-c2cccc3cnc(Nc4ccc(N5CCN(C)CC5)nc4)nc23)c1` [Example C041, N-(3-(2-((6-(4-methylpiperazin-1-yl)pyridin-3-yl)amino)quinazolin-8-yl)phenyl)acrylamide], the inhibition at 0.0137 µM at EGFR (ErbB1) T790M L858R was greater than 50%. As to `C=CC(=O)Nc1cccc(-c2cccc3cnc(Nc4ccc(N5CCN(C)CC5)cc4)nc23)c1Cl` [Example C054, N-(2-chloro-3-(2-((4-(4-methylpiperazin-1-yl)phenyl)amino)quinazolin-8-yl)phenyl)acrylamide], the inhibition at 0.041 µM at JAK2 and at BTK was greater than 50% each time.

As for `C=CC(=O)Nc1cccc(-c2cccc3cnc(Nc4ccc(N5CCN(C)CC5)nc4OC)nc23)c1` [Example C055, N-(3-(2-((2-methoxy-6-(4-methylpiperazin-1-yl)pyridin-3-yl)amino)quinazolin-8-yl)phenyl)acrylamide], the inhibition at 0.041 µM on JAK2 and at BTK was less than 50% in each case. For the molecule `C=CC(=O)Nc1cccc(-c2cccc3cnc(Nc4ccc(OC5CCN(C)CC5F)cc4)nc23)c1` (centres unmarked) [Example C079, N-(3-(2-((4-((3-fluoro-1-methylpiperidin-4-yl)oxy)phenyl)amino)quinazolin-8-yl)phenyl)acrylamide], on EGFR (ErbB1) T790M L858R, the inhibition at 0.0137 µM was greater than 50%.

With `C=CC(=O)Nc1cccc(-c2cccc3cnc(Nc4ccc(N5CCN(C)CC5)c(C(N)=O)c4)nc23)c1` [Example C085, 5-((8-(3-acrylamidophenyl)quinazolin-2-yl)amino)-2-(4-methylpiperazin-1-yl)benzamide], at EGFR (ErbB1) T790M L858R, the inhibition at 0.0137 µM is greater than 50%.

Turning to `C=CC(=O)Nc1cccc(-c2cccc3cnc(Nc4ccc(NC5CCN(C)CC5F)cc4)nc23)c1` (centres unmarked) [Example C105, N-(3-(2-((4-((3-fluoro-1-methylpiperidin-4-yl)amino)phenyl)amino)quinazolin-8-yl)phenyl)acrylamide], the inhibition at 0.0137 µM on EGFR (ErbB1) T790M L858R was greater than 50%. For `C=CC(=O)Nc1cccc(-c2cccc3cnc(Nc4ccc(OC5CCN(C(C)=O)CC5)cc4)nc23)c1` [Example C125, N-(3-(2-((4-((1-acetylpiperidin-4-yl)oxy)phenyl)amino)quinazolin-8-yl)phenyl)acrylamide], the inhibition at 0.041 µM at BTK is greater than 50%. Turning to `C=CC(=O)Nc1cccc(-c2cccc3cnc(Nc4ccc(OC5CCN(C)CC5)cc4)nc23)c1` [Example C126, N-(3-(2-((4-((1-methylpiperidin-4-yl)oxy)phenyl)amino)quinazolin-8-yl)phenyl)acrylamide], the inhibition at 0.041 µM at BTK is greater than 50%.
